Measurements as given in PubChem BioAssay AID330 (DTP/NCI, 2004).
“And” between values parts separate entries of the source, which are not always exact repeats. Identical values can stand only once. Toxic doses and inconclusive results are not listed. The calls were made as follows: active = survival T/C of 150% or more; inactive = T/C below 125% in these data.

Tested on: P388 leukemia ip, CD2F1 mice, survival T/C
Assay: NCI In Vivo Anticancer Drug Screen. Data for tumor model P388 Leukemia (intraperitoneal) in CD2F1 (CDF1) mice
Settings: endpoint: median survival time, higher = longer survival
In short: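 Mice carrying the transplanted tumor received test compound or vehicle. Survival was recorded in each group, and the value is the treated-group measurement divided by that of the vehicle-treated control group.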

[1] = dose: 50.0 mg/kg/injection, schedule: Q01DX005 (ip), vehicle: Klucel (hydroxypropylcellulose) (HPC)
[2] = dose: 100.0 mg/kg/injection, schedule: Q01DX005 (ip), vehicle: Klucel (hydroxypropylcellulose) (HPC)
[3] = dose: 200.0 mg/kg/injection, schedule: Q01DX005 (ip), vehicle: Klucel (hydroxypropylcellulose) (HPC)
[4] = dose: 60.0 mg/kg/injection, schedule: Q01DX005 (ip), vehicle: Klucel (hydroxypropylcellulose) (HPC)
[5] = dose: 120.0 mg/kg/injection, schedule: Q01DX005 (ip), vehicle: Klucel (hydroxypropylcellulose) (HPC)
[6] = dose: 240.0 mg/kg/injection, schedule: Q01DX005 (ip), vehicle: Klucel (hydroxypropylcellulose) (HPC)
[7] = dose: 12.5 mg/kg/injection, schedule: Q01DX009 (ip), vehicle: Klucel (hydroxypropylcellulose) (HPC)
[8] = dose: 25.0 mg/kg/injection, schedule: Q01DX009 (ip), vehicle: Klucel (hydroxypropylcellulose) (HPC)
[9] = dose: 50.0 mg/kg/injection, schedule: Q01DX009 (ip), vehicle: Klucel (hydroxypropylcellulose) (HPC)
[10] = dose: 25.0 mg/kg/injection, schedule: Q01DX005 (ip), vehicle: Klucel (hydroxypropylcellulose) (HPC)
[11] = dose: 60.0 mg/kg/injection, schedule: Q01DX005 (ip), vehicle: saline with Tween-80

Measured: T/C

CC(=O)NCCSSCCSC(=S)N1CCCCC1
inactive: [1] 112 % of control | [2] 107 % of control | [3] 102 % of control

NC/C(=N\O)c1ccc2ccccc2c1
inactive: [4] 100 % of control | [5] 110 % of control | [6] 105 % of control

C=C(C)CCC(N)C(=O)O (stereo unspecified)
inactive: dose: 12.5 mg/kg/injection, schedule: Q01DX009 (ip), vehicle: saline 107 % of control | dose: 25.0 mg/kg/injection, schedule: Q01DX009 (ip), vehicle: saline 104 % of control | dose: 50.0 mg/kg/injection, schedule: Q01DX009 (ip), vehicle: saline 100 % of control

COc1cccc2c1C(=O)C(C1CO1)=CC2=O (stereo unspecified)
inactive: dose: 12.5 mg/kg/injection, schedule: Q01DX001 (ip), vehicle: Klucel (hydroxypropylcellulose) (HPC) 88 % of control | dose: 25.0 mg/kg/injection, schedule: Q01DX001 (ip), vehicle: Klucel (hydroxypropylcellulose) (HPC) 95 % of control

NNC(=O)CN1c2ccccc2Sc2ccc(Cl)cc21
inactive: dose: 6.25 mg/kg/injection, schedule: Q01DX009 (ip), vehicle: Klucel (hydroxypropylcellulose) (HPC) 104 % of control | [7] 95 % of control | [8] 97 % of control | [9] 99 % of control

C=C(c1ccc(OC)c(OC)c1)c1nccc2cc(OC)c(OC)cc12
inactive: [1] 98 % of control | [2] 96 % of control | [3] 100 % of control

CCC[CH2][Sn]([CH2]CCC)([S]/C(C#N)=N/N=C/c1ccc(N(C)C)cc1)[S]/C(C#N)=N/N=C/c1ccc(N(C)C)cc1
inactive: dose: 7.5 mg/kg/injection, schedule: Q01DX005 (ip), vehicle: saline with Tween-80 117 % of control

O=C(OC1(c2ccc3ccccc3c2)OC(=O)c2ccccc21)c1ccccc1C(=O)c1cccc2ccccc12 (stereo unspecified)
inactive: dose: 100.0 mg/kg/injection, schedule: Q01DX001 (ip), vehicle: Klucel (hydroxypropylcellulose) (HPC) 92 % of control | dose: 200.0 mg/kg/injection, schedule: Q01DX001 (ip), vehicle: Klucel (hydroxypropylcellulose) (HPC) 91 % of control | dose: 400.0 mg/kg/injection, schedule: Q01DX001 (ip), vehicle: Klucel (hydroxypropylcellulose) (HPC) 91 % of control

CN1C2CCC1CC(O)(c1ccc(Cl)cc1)C2 (stereo unspecified)
inactive: dose: 12.5 mg/kg/injection, schedule: Q01DX005 (ip), vehicle: Klucel (hydroxypropylcellulose) (HPC) 100 % of control | [10] 100 % of control | [1] 107 % of control | [2] 109 % of control

Cc1cc2nc(CC(=O)c3ccc4ccccc4c3)c(=O)[nH]c2cc1C
inactive: dose: 15.0 mg/kg/injection, schedule: Q01DX005 (ip), vehicle: saline with Tween-80 91 % of control | dose: 30.0 mg/kg/injection, schedule: Q01DX005 (ip), vehicle: saline with Tween-80 91 % of control | [11] 90 % of control

C=C(C)C(=O)OCCN(C)C (tested in a mixture with another compound)
inactive: dose: 50.0 mg/kg/injection, schedule: Q01DX009 (ip), vehicle: saline with Tween-80 100 % of control | dose: 100.0 mg/kg/injection, schedule: Q01DX009 (ip), vehicle: saline with Tween-80 100 % of control | dose: 200.0 mg/kg/injection, schedule: Q01DX009 (ip), vehicle: saline with Tween-80 100 % of control

COc1cc2c(c(OC)c1OC)-c1ccc(OC)c(=O)cc1[C@@H](NC=O)CC2
inactive: dose: 0.25 mg/kg/injection, schedule: Q01DX009 (ip), vehicle: saline 117 % of control

CN(C)N1C(=O)SCC(c2ccccc2)(c2ccccc2)C1=O
inactive: [4] 97 % of control | [5] 96 % of control | [6] 86 % of control

CCCCCCCCCCCCCCCC(=O)NCC(=O)NC1C(CO)OC(Nc2ncnc3nc[nH]c23)C(O)C1O (stereo unspecified)
inactive: dose: 0.13 mg/kg/injection, schedule: Q01DX009 (ip), vehicle: water 110 % of control | dose: 0.25 mg/kg/injection, schedule: Q01DX009 (ip), vehicle: water 107 % of control | dose: 1.0 mg/kg/injection, schedule: Q01DX009 (ip), vehicle: water 96 % of control | dose: 2.0 mg/kg/injection, schedule: Q01DX009 (ip), vehicle: water 98 % of control

CCOC1(C)OC2OC(COC(C)=O)C(OC(C)=O)C(OC(C)=O)C2O1 (stereo unspecified)
inactive: dose: 4.0 mg/kg/injection, schedule: Q01DX009 (ip), vehicle: other 95 % of control | dose: 8.0 mg/kg/injection, schedule: Q01DX009 (ip), vehicle: other 99 % of control | dose: 16.0 mg/kg/injection, schedule: Q01DX009 (ip), vehicle: other 102 % of control | dose: 32.0 mg/kg/injection, schedule: Q01DX009 (ip), vehicle: other 104 % of control | dose: 50.0 mg/kg/injection, schedule: Q01DX009 (ip), vehicle: other 95 % of control | dose: 64.0 mg/kg/injection, schedule: Q01DX009 (ip), vehicle: other 98 % of control | dose: 100.0 mg/kg/injection, schedule: Q01DX009 (ip), vehicle: other 100 % of control | dose: 200.0 mg/kg/injection, schedule: Q01DX009 (ip), vehicle: other 104 % of control | dose: 400.0 mg/kg/injection, schedule: Q01DX009 (ip), vehicle: other 95 % of control

COc1ccc2c(c1[N+](=O)[O-])CCCCC2=O
inactive: dose: 100.0 mg/kg/injection, schedule: Q01DX009 (sc), vehicle: olive oil, sesame oil, peanut oil 104 % of control | dose: 200.0 mg/kg/injection, schedule: Q01DX009 (sc), vehicle: olive oil, sesame oil, peanut oil 95 % of control | dose: 400.0 mg/kg/injection, schedule: Q01DX009 (sc), vehicle: olive oil, sesame oil, peanut oil 107 % of control

O=[N+]([O-])c1cc(Cl)ccc1-c1ccccc1
inactive: dose: 100.0 mg/kg/injection, schedule: Q01DX009 (ip), vehicle: Klucel (hydroxypropylcellulose) (HPC) 87 % of control | dose: 200.0 mg/kg/injection, schedule: Q01DX009 (ip), vehicle: Klucel (hydroxypropylcellulose) (HPC) 93 % of control | dose: 400.0 mg/kg/injection, schedule: Q01DX009 (ip), vehicle: Klucel (hydroxypropylcellulose) (HPC) 101 % of control

N=C(N)SCc1ccc2nsnc2c1
inactive: dose: 12.5 mg/kg/injection, schedule: Q01DX005 (ip), vehicle: saline with Tween-80 98 % of control | dose: 25.0 mg/kg/injection, schedule: Q01DX005 (ip), vehicle: saline with Tween-80 100 % of control | dose: 50.0 mg/kg/injection, schedule: Q01DX005 (ip), vehicle: saline with Tween-80 98 % of control and 102 % of control

Clc1c2ccccc2[se][n+]1-c1ccccc1
inactive: [7] 109 % of control | [8] 111 % of control | [9] 115 % of control

COC(=O)N(C)SN(C)C(=O)O/N=C(\SC)C(=O)N(C)C
inactive: dose: 1.56 mg/kg/injection, schedule: Q01DX009 (ip), vehicle: saline 101 % of control | dose: 3.12 mg/kg/injection, schedule: Q01DX009 (ip), vehicle: saline 102 % of control

CC(=O)OC(C)CCCCCCCCCCCCCCC1=C(C)C(=O)OC1=O (stereo unspecified)
inactive: [10] 99 % of control | [1] 106 % of control | [2] 108 % of control | [3] 105 % of control | dose: 400.0 mg/kg/injection, schedule: Q01DX005 (ip), vehicle: Klucel (hydroxypropylcellulose) (HPC) 101 % of control

CC(=O)N/C(=C\c1ccc([N+](=O)[O-])cc1)c1nc2ccccc2s1
inactive: [11] 110 % of control | dose: 120.0 mg/kg/injection, schedule: Q01DX005 (ip), vehicle: saline with Tween-80 107 % of control | dose: 240.0 mg/kg/injection, schedule: Q01DX005 (ip), vehicle: saline with Tween-80 113 % of control
